Test results as given in US20010020002A1, “Androgen activity antagonists as therapies for anorexia, anorexia nervosa and disorders characterized by a pathologically underweight condition” (VELA PHARMACEUTICALS INC., priority 1997, published 2001).

How the values were obtained:
[1] = Example 5: flutamide therapy of cachexia in an AIDS patient; assay type: in vivo, human; details: person with AIDS, 750 mg daily in three divided doses
[2] = in vivo; cited from earlier work
[3] = Example 1: flutamide therapy of a patient with anorexia nervosa; assay type: in vivo, human; details: person with AN, 250 mg daily, follow-up in one week
Method: The dose of flutamide is increased to 500 mg daily (250 mg twice a day). They then return every month for an assessment of their symptomatology using the Yale-Brown-Cornell Eating Disorder Scale (YBC-EDS).

Structure (SMILES) | initial side effects [1] | tolerability of therapy [1] | half-life [2] [h] | tolerability of therapy [3]
CC(C)C(=O)Nc1ccc([N+](=O)[O-])c(C(F)(F)F)c1 [flutamide] | initial problems with diarrhea and breast tenderness | tolerated well | 5.2 | tolerated the therapy well
CC1(C)NC(=O)N(c2ccc([N+](=O)[O-])c(C(F)(F)F)c2)C1=O [Nilutamide, nilutamide] | – | – | 40 | –
